Assay results: patent publication EP3578180A1, “MODULATORS OF SERYL-TRNA SYNTHASE AND PHARMACEUTICAL COMPOSITIONS COMPRISING THE SAME FOR INCREASING CELL HYPOXIC TOLERANCE” (Centre National de la Recherche Scientifique (CNRS), priority 2018, dated 2019)
Where two headings read alike, the source gives them in different places.

Legend:
PCT cells = test: LIVE/DEAD cell viability of kidney cells under anoxia; assay type: cell-based, murine
Experimental: HT22 mouse hippocampal neuronal cells were cultured in Dulbecco's modified Eagle's medium (DMEM; Gibco) supplemented with 10% FBS (Gibco), 100U/ml streptomycin, 100U/ml penicillin at 37 °C in 5% CO2/95% air. Renal PCT cells were obtained from primary cultures of murine proximal tubule segments and cultured as previously described (Melis, N. et al. Targeting eIF5A Hypusination Prevents Anoxic Cell Death through Mitochondrial Silencing and Improves Kidney Transplant Outcome. J Am Soc Nephrol 28, 811-822, doi:10.1681/ASN.2016010012 (2017)). Hypoxic or anoxic conditions were created by maintaining cell cultures at 37°C in a sealed "Bug-Box" anaerobic workstation (Ruskin Technologies). Oxygen Glucose Deprivation (OGD) was induced on HT22 cells placing them in glucose-free Hepes balanced salt solution without glucose (HBSS: NaCl 116mM, KCl 5.4mM, CaCl2 1.8mM, MgSO4 0.8mM, NAH2PO4 1mM, NaHCO3 26.2mM,; pH 7.2-7.4) in an hypoxic chamber filled with 98.5% N2 and 1.5% CO2 at 37°C for 3h. Upon removal of the cultures from the chamber, the growth medium was changed back to normal medium.
The Fluorescent LIVE/DEAD® Cell Viability/Cytotoxicity Assay Kit (Invitrogen, France) was used on PCT cells (24-well plates) according to the manufacturer's protocol. Fluorescent micrographs were recorded using an observer D1 microscope (Zeiss).
150,000 PCT cells were seeded in Petri dishes and transfected 24 h later with 50 nM serRS pooled siRNAs (Sigma MISSION®esiRNA targeting mouse serRS: EMU081851) using Lipofectamine™ 3000 transfection reagent (Invitrogen). Cells were exposed to various experimental procedures 24-48 h post-transfection, as described in the text.

mice = test: tMCAo stroke model, infarct volume (cresyl violet); assay type: in vivo; details: SerHX pretreatment, '15 mM serHX group'; 60 min tMCAo; 24 h post-reperfusion; Fig.3C
Experimental: Male 7-week old C57BL/6J mice (Janvier France Breeding) were housed in a temperature- and humidity-controlled animal facility with a 12-h light-dark cycle. Food and water were available ad libitum. All animal care and use were performed with in accordance to the policies of European Community Directive 86/609/EEC. All efforts were made to minimize animal suffering and the number of animals used.
tMCAO was performed 30 min after the final injection using a 6-0 coated filament (Doccol), as previously described (Bourourou, M., Heurteaux, C. & Blondeau, N. Alpha-linolenic acid given as enteral or parenteral nutritional intervention against sensorimotor and cognitive deficits in a mouse model of ischemic stroke. Neuropharmacology 108, 60-72, doi:10.1016/j.neuropharm.2016.04.040 (2016)). Control of tMCAo severity and reperfusion was evaluated monitoring the regional cerebral blood flow by laser-Doppler flowmetry. Infarct volume (mm^3) was mesured 24 h post-reperfusion on coronal frozen brain sections ([…]) stained by 1% cresyl violet in 0.25% acetic acid using a computer image analysis system.
Animals were randomly assigned to vehicle or serHX groups prepared for 3 experimental protocols. Protocol 1: Vehicle and serHX were administrated intraperitoneally (416 mM, 150µl IP) 48, 24, 2h before a 60min tMCAo. […]

C[C@@H]1C[C@@H]([C@H](O)CC2CC(=O)NC(=O)C2)C(=O)[C@@H](C)C1 [cycloheximide]
living kidney cells (PCT cells): 64% | renal cell survival after 24 h of anoxia (in words) (PCT cells): increased renal cell survival

N[C@@H](CO)C(=O)O [serine]
renal cell survival after 24 h of anoxia (in words) (PCT cells; anoxia 24 h, <0.1% O2, Fig.1A): no effect

NC(CO)C(=O)NO (centres unmarked) [serine hydroxamate]
living kidney cells (PCT cells; anoxia 24 h, <0.1% O2, cells treated with the inhibitor beforehand, CHX 1 to 10 pg/ml, Fig.1A): 95% | reduction of infarct volumes compared with the vehicle group (mice): 30%
